Measured values: a melting point compilation (Tetko et al.; mined from patent text by program, amines drawn as free bases though some values may be those of a salt)

`CCCCCOc1ccc(C(=O)Nc2ccc3cc(CN4CCCC4)cnc3c2C)cc1` gave a melting point of 155 °C. Compound `Cc1ccccc1C(=O)Nc1ccc(C(=O)N2CCCC(NC(=O)Nc3ccccc3)c3ccccc32)cc1` (centres undefined) has a melting point of 269 to 271 °C. `O=C(O)Cc1cccc(OCCCNCC(c2ccccc2)c2ccccc2)c1` showed a melting point of 49.1 °C. In the case of `NS(=O)(=O)c1ccc(C(=O)NCCCN2CCOCC2)cc1`, the melting point was 196 to 198 °C. In the case of `COCC(=O)NCc1cccc(-c2csc(N=C(N)N)n2)n1`, the melting point was 195 to 196 °C. For `COC(=O)CCCCNC(=O)c1sc2ccc(OC)cc2c1OC(C)C`, the melting point was 82 to 84 °C. `COC(=O)c1cc(O)c(N=Nc2ccccc2)c(OC(C)=O)c1` gave a melting point of 162 °C. For `S=c1[nH]cnc2c(Br)csc12`, the melting point was 328 °C. Compound `O=C(O)Cc1c(C(=O)c2ccc3c(c2)CCO3)[nH]c2cc(Cl)ccc12` has a melting point of 217 °C. In the case of `O=c1[nH]ccc2c1C(c1cccc([N+](=O)[O-])c1)N=C(c1ccccc1)N2` (centres undefined), the melting point was 206 to 207 °C. In the case of `O=C(NC1CCN(CCCOc2ccc3c4c(c(=O)oc3c2)CCCC4)CC1)c1ccccc1O`, the melting point was 209 to 211 °C. `CC(=O)N(C)C12CCCCC1Oc1ccccc12` (centres undefined) gave a melting point of 138 to 139 °C. `Cc1cc(-n2ccnc2)ccc1[N+](=O)[O-]` showed a melting point of 138 to 140 °C. In the case of `O=C(CC(=O)C1CC1)c1ccncn1`, the melting point was 81 to 84 °C. Work on `CC(O)(CCCc1ccc(Cl)cc1)c1ccc(OCc2ccc3ccccc3n2)cc1` (centres undefined) yielded a melting point of 110 to 112 °C. With `CS(=O)(=O)c1ccc(-n2nc(C(F)(F)F)cc2-c2ccc(-c3ccoc3)cc2)cc1F` the melting point was 74 to 76 °C. In the case of `O=C1Nc2cc(C(F)(F)F)cnc2C1C(=O)OCc1ccccc1` (centres undefined), the melting point was > 250 °C. `O=S1(=O)NCN(CCF)c2ccc(F)cc21` gave a melting point of 133 to 134 °C. For `COc1ccc(-c2nc(OC(=O)N(C)C)nn2-c2ccc(OC)cc2)cc1`, the melting point was 121 to 123 °C. `Cc1cc2c3c(cc(C)c2[nH]c1=O)CC(C)(CBr)O3` (centres undefined) showed a melting point of 257 to 259 °C. For `Clc1ccc(-c2cc(C3=CCN(Cc4c[nH]c5ncccc45)CC3)on2)cc1`, the melting point was 245 to 247 °C. `CCOCCOc1ccc(-c2ccc3c(c2)C=C(C(=O)Nc2ccc(CN(C)C4CCOCC4)cc2)CCS3(=O)=O)cc1F` showed a melting point of 212 to 214 °C. Work on `FC(F)(F)c1cc(C2CCCO2)c2cccc(C(F)(F)F)c2n1` (centres undefined) yielded a melting point of 61 to 61.7 °C. For `CCCCCCCCC#Cc1ccc2sc(C=O)cc2c1`, the melting point was 45 to 47 °C. In the case of `O=C(Nc1ccc(OCCN2CCOCC2)c2ccccc12)c1cc(F)cc(N2CCCCCC2)c1`, the melting point was 142 to 144 °C. `CCOP1(=O)OCC(C)(C)c2cc(OS(C)(=O)=O)ccc2O1` (centres undefined) gave a melting point of 113 to 115 °C. `CN(CC(=O)O)C(=S)c1cc(-c2ccccc2)nc2ccccc12` showed a melting point of 228 to 230 °C. With `COCN1C(C)=C(C(=O)OC)C(c2cccc(Cl)c2Cl)C(C(=O)OCOC(=O)C(C)(C)C)=C1C` (single isomer, unassigned; (+)) the melting point was 149 to 150 °C. `O=C1CCC(N2Cc3cc(CNC(=O)c4ccccc4)ccc3C2=O)C(=O)N1` (centres undefined) gave a melting point of 266 to 268 °C. Compound `O=C(Nc1ccc(C2=NOC(c3cc(Cl)cc(Cl)c3)(C(F)(F)F)C2)cc1)C(F)(F)F` (centres undefined) has a melting point of 45 to 52 °C. For `CCCC1Sc2c(cc(OC)c(Cl)c2Cl)C1O` (centres undefined), the melting point was 119 to 120 °C. `N[C@H]1CC[C@@H](n2ccc(-c3ccc(F)cc3)c2-c2ccncc2)CC1` showed a melting point of 163 to 164 °C. Work on `COc1ccc(-c2cccc3c(C(C)C)c(C)nn23)c(Cl)c1` yielded a melting point of 112 to 115 °C. `O=C(OCc1ccc(Cl)cc1)c1ncn2c1[C@@H]1CCCN1C(=O)c1c(Cl)cccc1-2` showed a melting point of 183 to 184 °C. In the case of `CN1CCC(O)(c2cc(F)cc(F)c2)C1` (centres undefined), the melting point was 150 °C. `CC(C)(C)OC(=O)N=C(NC(=O)OC(C)(C)C)N1CCC(n2ccc3ccccc32)CC1` gave a melting point of 115 to 118 °C. With `COC1(c2nc3ccc(C)cc3s2)C=CC(=NS(=O)(=O)c2ccc(C)cc2)C=C1` (centres undefined) the melting point was 166 to 168 °C. For `O=[N+]([O-])c1ccc(Cl)c(C2SCCS2)c1`, the melting point was 130 to 131 °C. `CC(C)[C@H](S)C(=O)NC(C)(C)C(=O)N[C@@H](Cc1ccc(O)cc1)C(=O)O` gave a melting point of 180 to 181 °C. In the case of `Cc1cc(C)c(-c2ccc3c(=O)c(C(=O)O)cn(C4CC4)c3c2C)cn1`, the melting point was 217 °C. `C#CCOc1cc(Oc2ccc(OC)cc2)ncn1` gave a melting point of 72 °C. `CN1CC2CN(C)CC(C1)C2OCc1ccccc1` (centres undefined) showed a melting point of 70 to 75 °C. Work on `CCOC(=O)c1ccc(OCCCCCCCCCCBr)cc1` yielded a melting point of 41 to 42 °C. `CCC(CCOC)c1ccc(Cl)c2nc3n(c12)CCCN3c1ccc(Cl)cc1Cl` (centres undefined) gave a melting point of 144 to 146 °C. For `COC(=O)C=Cc1cc(O)cc2cc(-c3ccc(O)cc3)oc12`, the melting point was 231 to 234 °C. For `CC(C)c1ccc2c(O)c(C(=O)Nc3ccc(OCC(C)(C)C)c(C#N)c3)sc2n1`, the melting point was 211 to 212 °C. In the case of `Cc1ccc2[nH]c3c(c2c1)CC(=O)Nc1cccnc1-3`, the melting point was > 330 °C. With `COc1ccnc(-c2cccs2)c1` the melting point was 43 to 45 °C. `CC(C)(C)c1cc(SCc2nc3cccnc3[nH]2)cc(C(C)(C)C)c1O` gave a melting point of 241 to 242 °C. With `CCOC(=O)C(C#N)C1(C#N)C(=O)N(Cc2ccc(F)cc2)c2c(C)cccc21` (centres undefined) the melting point was 130 to 132 °C. For `CN1C(=O)C(Br)=C(c2c[nH]c3c(OC(c4ccccc4)c4ccccc4)cccc23)C1=O`, the melting point was 205 °C. `Nc1cccc(OCc2ncc3ccccc3n2)c1` gave a melting point of 103 to 107 °C. With `COc1ccc(NC(=S)N2CCn3c(c(C(N)=O)c(Cl)c3-c3ccccc3)C2)cc1` the melting point was 176 to 178 °C. `CNC1CN(c2c(F)c(N)c3c(=O)c(C(=O)O)cn(-c4nc(N)c(F)cc4F)c3c2Cl)C1` gave a melting point of 204 to 213 °C. For `CCOC(=O)c1nc(NCC(c2ccccc2)c2ccccc2)c2ncn([C@@H]3O[C@H](CO)[C@H]4OC(C)(C)O[C@H]43)c2n1`, the melting point was 126 to 128 °C. `CCOC(=O)CCc1oc(-n2ccnc2)nc1-c1ccc(Cl)cc1` gave a melting point of 67 to 68 °C. `CC1C(=O)Oc2cc(N3CCCCC3)ccc21` (centres undefined) showed a melting point of 78 to 80 °C. In the case of `O=C(Nc1ccc(N2CCN(Cc3ccccc3)CC2)cc1)c1ccccc1-c1ccc(C(F)(F)F)cc1`, the melting point was 180 °C. `CCCCn1c(=O)c2cc(C(=O)OCC)cn2c2cc(Cl)c(Cl)cc21` gave a melting point of 179 to 180 °C. Work on `O=C(c1ccncc1)c1cc(Br)cc(Br)c1` yielded a melting point of 89 to 92 °C. Work on `COc1ccc(-c2cn3ccccc3n2)cc1` yielded a melting point of 131 to 134 °C. With `CCC12CCC3C4CCC(=O)C=C4CCC3C1=CC=C2c1ccccc1` (centres undefined) the melting point was 191 °C. Compound `COC(=O)C1CCCCc2c(-c3ccc(Cl)cc3)noc2C1` (centres undefined) has a melting point of 65 to 69 °C. With `N#Cc1cccnc1Oc1cccc(Cl)c1` the melting point was 88 to 90 °C. For `CCCNC(=S)NS(=O)(=O)c1cc2c(cc1OC)OCC(NC(=O)c1cc(Cl)ccc1OC)C2` (centres undefined), the melting point was 182 °C. For `CC(OS(C)(=O)=O)C(=O)O` (single isomer, unassigned; (-)), the melting point was 65 to 72 °C. Compound `Cc1nnc2n1-c1sccc1C(c1ccccc1)=NC2` has a melting point of 224 to 226 °C. `CC(C)(C)c1ccc(C(=O)Nc2cn3cc(-c4cn[nH]c4)ccc3n2)cc1` gave a melting point of 278 to 280 °C. With `CC(CO)(CO)NCc1c2ccc3ccccc3c2cc2ccsc12` the melting point was 212 to 215 °C. `O=S(=O)(c1cccc2ccccc12)c1n[nH]c2ccc(OCC3CCNCC3)cc12` showed a melting point of 175 to 177 °C. For `CCCC1=C(C(=O)OCC)C(c2ccccc2Cl)c2cnn(C(=O)OC(C)(C)C)c2N1` (centres undefined), the melting point was 112 to 116 °C. For `O=C(Oc1ccccc1)c1cc2ccc3c4cc(F)ccc4[nH]c3c2cc1O`, the melting point was 289 to 290 °C. `Cc1cc(C)cc(Oc2nc(Cl)nc(Cl)c2C(C)C)c1` gave a melting point of 107 to 108 °C. In the case of `COc1ccc(C(C)=Cc2ccc3ccccc3c2)cc1`, the melting point was 141 °C. Compound `CN1c2ccccc2-c2nc3ccc(Cl)cc3c3cccc1c23` has a melting point of 226 to 228 °C. `CCn1cc(-c2cc(-c3nc(C(C)C)[nH]c3-c3cccc(C)n3)ccc2F)cn1` showed a melting point of 76 to 78 °C. Work on `c1ccc2c(c1)Cc1ccccc1N2` yielded a melting point of 170 to 171 °C. For `CNc1nc(CCN2CCC(Nc3nc4ccccc4n3Cc3ccc(F)cc3)CC2)c(C)s1`, the melting point was 182 °C. In the case of `COc1ccc(-c2cc(=O)c3c(OC)cc(OC)cc3o2)cc1`, the melting point was 156 °C. With `Cc1noc(NS(=O)(=O)c2ccc(NCC(=O)O)cc2-c2ccc(CC(C)C)cc2)c1C` the melting point was 73 to 78 °C. In the case of `OCc1c(CO)c2sc3ccccc3n2c1-c1ccc(F)cc1`, the melting point was 155 to 156 °C. `CC(C)=CCOC(C)C1CC=C2C3=C(CCC21C)C1(C)CCC(OC(=O)CCC(=O)O)C(C)(C)C1CC3` (centres undefined) showed a melting point of 60 to 67 °C. For `Cn1c(=O)cc(CCN2CCC(c3c[nH]c4ccccc34)CC2)c2ccccc21`, the melting point was 79 to 81 °C. For `CCOC(=O)/C=C/c1ccc(OCCC2(C)OCCO2)cc1Oc1ncc(C(F)(F)F)cc1Cl`, the melting point was 90 to 91 °C. With `CCCCCCc1cc2c(cc1/C=C/c1ccc(C(=O)O)cc1)C(C)(C)CCC2(C)C` the melting point was 134 to 136 °C. Work on `Cc1ccc(OC(=O)N2CCCC2=O)cc1` yielded a melting point of 101 to 102 °C. With `O=C(c1ccc(-n2ccnc2)cc1)N1CCN(S(=O)(=O)c2cc3cc(Cl)ccc3[nH]2)CC1` the melting point was 155 to 165 °C. Work on `Cc1ncc(Cn2c(CC3CCN(CCc4c(C)nc5sccn5c4=O)CC3)nc3ccccc32)o1` yielded a melting point of 174 °C. `Cc1cc(C(=O)Nc2cc(F)ccc2O)c(Br)s1` gave a melting point of 210 to 212 °C. Work on `Cc1cc(O)cc(C)c1-c1cccc(CO)c1` yielded a melting point of 175 °C. With `Cn1nc(-c2nc(C#CCO)c(Cl)cc2F)c(Cl)c1OC(F)F` the melting point was 92 to 94 °C. `CCOC(=O)c1ncn2c(-c3cccc(C(F)(F)F)c3)ccnc12` gave a melting point of 232 to 234 °C. In the case of `CN1CC(CN)Oc2c(-c3ccccc3C(F)(F)F)cccc21` (centres undefined), the melting point was 90 °C. `O=C1CCC(C(=O)c2ccc(C3CCCCC3)cc2)N1` (centres undefined) showed a melting point of 200 °C. `COC(=O)c1ccccc1-c1nc(COc2ccc(COc3nn(-c4ccccc4)cc3C=O)cc2OC)c(C)o1` gave a melting point of 134 to 135 °C. Compound `CCCCC(CC)COC(=O)c1cccc(S(N)(=O)=O)c1` (centres undefined) has a melting point of 40 to 42 °C. For `FC(F)=C(F)CC(=S)Nc1ccccc1`, the melting point was 65 to 67 °C. In the case of `OC(c1ccccc1)C1CCN(CCCN(c2ccccc2)c2ccccc2)CC1` (centres undefined), the melting point was 129 to 130 °C. In the case of `Cc1cc2nc(C)c(=O)[nH]c2cc1C`, the melting point was 306 to 308 °C.
